Data set [1] relates to MDA-MB-231. In words: Anticancer activity against human MDA-MB-231 cells assessed as cell growth inhibition incubated for 48 hrs by SRB assay. The note with it: MDA-MB-231, 48 h. It counts as functional, cell-based. In general terms: The SRB assay estimates cell density from bound dye.
For a further data set, the system named is PANC-1. The data set is described as follows: Anticancer activity against human PANC-1 cells assessed as cell growth inhibition incubated for 48 hrs by SRB assay. The format is functional.
For the next data set, the target named is T1, Aromatase (Homo sapiens, UniProt P11511).
T1 sequence (P11511 whole entry): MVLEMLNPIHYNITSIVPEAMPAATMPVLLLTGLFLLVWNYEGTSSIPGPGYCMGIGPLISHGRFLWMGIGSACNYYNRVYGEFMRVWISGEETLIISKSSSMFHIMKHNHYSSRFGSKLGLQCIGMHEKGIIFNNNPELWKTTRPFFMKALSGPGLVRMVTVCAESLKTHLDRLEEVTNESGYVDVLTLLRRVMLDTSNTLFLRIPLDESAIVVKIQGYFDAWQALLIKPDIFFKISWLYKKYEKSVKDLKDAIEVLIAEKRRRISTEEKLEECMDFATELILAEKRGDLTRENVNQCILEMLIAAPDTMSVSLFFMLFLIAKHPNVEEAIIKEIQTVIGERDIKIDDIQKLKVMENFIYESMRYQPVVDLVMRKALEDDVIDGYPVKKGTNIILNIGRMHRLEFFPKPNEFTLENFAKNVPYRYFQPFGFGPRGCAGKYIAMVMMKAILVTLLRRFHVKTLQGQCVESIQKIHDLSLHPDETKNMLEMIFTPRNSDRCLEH

For a further data set, the system named is A549. The data set is described as follows: Anticancer activity against human A549 cells assessed as cell growth inhibition measured after 72 hrs by MTT assay. It counts as functional, cell-based. Particulars: Homo sapiens, A549, 72 h. For orientation: Tetrazolium assays rely on reduction of a dye to a coloured formazan, in cell work by metabolically active cells.

Data set [2] can be described thus: Anticancer activity against Lung adenocarcinoma cell line assessed as cell growth inhibition measured after 72 hrs by MTT assay. Particulars: Lung adenocarcinoma cell line, 72 h. The format is functional, cell-based.
A further data set concerns the target CYP1A (Homo sapiens, UniProt P04798+P05177). In words: Inhibtion of CYP1A (unknown origin). The format is ADME, protein assay.
The test system of data set [3] is HeLa. In words: Anticancer activity against human HeLa cells assessed as cell growth inhibition measured after 72 hrs by MTT assay. It counts as functional, cell-based. Particulars: Homo sapiens, HeLa, 72 h; read-out: IC50.
A further data set relates to MV4-11. In words: Anticancer activity against human MV4-11 cells assessed as cell growth inhibition. Particulars: read-out: LD50 (the source's name). It counts as functional.
The test system of another data set is SF-295. The data set is described as follows: Anticancer activity against human SF-295 cells assessed as cell growth inhibition. It counts as functional.
The subject of another data set is UACC-62. In words: Anticancer activity against human UACC-62 cells assessed as cell growth inhibition. The format is functional.
In the next data set the test system is MDA-MB-435. The data set is described as follows: Anticancer activity against human MDA-MB-435 cells assessed as cell growth inhibition. It counts as functional.
Data set [4] relates to Panel NCI-60 (60 carcinoma cell lines). The data set is described as follows: Growth inhibition of human Panel NCI-60 (60 carcinoma cell lines). The format is functional.
Data set [5] deals with HeLa. The data set is described as follows: Anticancer activity against human HeLa cells assessed as cell growth inhibition. It counts as functional, cell-based.
The test system of the next data set is BT-549. In words: Anticancer activity against human BT-549 cells assessed as cell viability at 10 uM measured after 7 days relative to control. It counts as functional. The note with it: BT-549, 168 h, time 7 day, read-out: Activity.
For a further data set, the system named is ZR-75-1. The data set is described as follows: Anticancer activity against human ZR-75-1 cells assessed as cell viability at 10 uM measured after 7 days relative to control. The format is functional. The note with it: ZR-75-1, 168 h, time 7 day, read-out: Activity.
The subject of data set [6] is B16-F10. The data set is described as follows: Anti cancer activity against mouse B16-F10 cells assessed as cell growth inhibition incubated for 40 hrs by Almar Blue stained fluorescence-based assay relative to control. It counts as functional.
Data set [7] concerns MDA-MB-231. The data set is described as follows: Anticancer activity against human MDA-MB-231 cells assessed as cell viability at 10 uM measured after 7 days relative to control. The note with it: MDA-MB-231, 168 h, time 7 day, read-out: Activity. The format is functional.
The subject of another data set is MDA-MB-157. In words: Anticancer activity against human MDA-MB-157 cells assessed as cell viability at 10 uM measured after 7 days relative to control. The note with it: MDA-MB-157, 168 h, time 7 day, read-out: Activity. The format is functional.
For a further data set, the system named is HT-29. In words: cells. Particulars: Homo sapiens, HT-29, 48 h.
The subject of a further data set is Caco-2. In words: cells. Particulars: Homo sapiens, Caco-2, 48 h.
The test system of a further data set is MCF7. The data set is described as follows: Anticancer activity against human MCF7 cells assessed as cell viability at 10 uM measured after 7 days relative to control. The format is functional. The note with it: MCF7, 168 h, time 7 day, read-out: Activity.
The test system of data set [8] is B16-F10. In words: Anti cancer activity against mouse B16-F10 cells assessed as cell growth inhibition incubated for 40 hrs by Almar Blue stained fluorescence-based assay. The note with it: B16-F10, 40 h. It counts as functional.
For another data set, the system named is HepG2. The data set is described as follows: cells. Particulars: Homo sapiens, HepG2, 48 h.
For another data set, the system named is SK-MEL-5. In words: Anticancer activity against human SK-MEL-5 cells assessed as cell growth inhibition. It counts as functional.
For the next data set, the system named is SF-539. In words: Anticancer activity against human SF-539 cells assessed as cell growth inhibition. The format is functional.
In the next data set the test system is COLO 205. The data set is described as follows: Anticancer activity against human COLO 205 cells assessed as cell growth inhibition. The format is functional.
Another data set has as its system BXPC-3. The data set is described as follows: Anticancer activity against human BXPC-3 cells assessed as cell growth inhibition incubated for 72 hrs by MTT assay. It counts as functional, cell-based. Particulars: BXPC-3, 72 h.
The next data set deals with ASPC1. The data set is described as follows: Anticancer activity against human ASPC1 cells assessed as cell growth inhibition incubated for 72 hrs by MTT assay. The format is functional, cell-based. Particulars: ASPC1, 72 h.
A further data set concerns Capan-2. In words: Anticancer activity against human Capan-2 cells assessed as cell growth inhibition incubated for 72 hrs by MTT assay. It counts as functional, cell-based. The note with it: Capan-2, 72 h.
The nature of data set [9]: Anticancer activity against human HOSE cells assessed as cell growth inhibition incubated for 24 hrs […] by MTT assay. It counts as functional, cell-based.
In data set [10] the test system is A2780. The data set is described as follows: Anticancer activity against human A2780 cells assessed as cell growth inhibition by LDH release assay. The format is functional, cell-based. In general terms: LDH in the medium is a marker of cell lysis.
Data set [11] deals with A2780. In words: Anticancer activity against human A2780 cells assessed as cell growth inhibition incubated for 24 hrs […] by MTT assay. It counts as functional, cell-based. Particulars: A2780, 24 h.
The test system of data set [12] is OVCAR-3. In words: Anticancer activity against human OVCAR-3 cells assessed as cell growth inhibition by LDH release assay. The format is functional, cell-based.
Data set [13] concerns SK-OV-3. The data set is described as follows: Anticancer activity against human SK-OV-3 cells assessed as cell growth inhibition by LDH release assay. It counts as functional, cell-based.
A short description of data set [14]: Anticancer activity against human Peritoneal mesothelial cells assessed as cell growth inhibition incubated for 24 hrs […] by MTT assay. It counts as functional, cell-based.
The nature of data set [15]: Anticancer activity against human HOSE cells assessed as cell growth inhibition by LDH release assay. It counts as functional, cell-based.
For data set [16], the system named is SK-OV-3. In words: Anticancer activity against human SK-OV-3 cells assessed as cell growth inhibition incubated for 24 hrs […] by MTT assay. Particulars: SK-OV-3, 24 h. It counts as functional, cell-based.
The nature of data set [17]: Anticancer activity against human Peritoneal mesothelial cells assessed as cell growth inhibition by LDH release assay. The format is functional, cell-based.
Data set [18] deals with OVCAR-3. In words: Anticancer activity against human OVCAR-3 cells assessed as cell growth inhibition incubated for 24 hrs […] by MTT assay. The format is functional, cell-based. Particulars: OVCAR-3, 24 h.

As a reminder, the IC50 is the concentration that gives 50% inhibition. A word on the GI50: it is the concentration giving 50% growth inhibition.

Description for Aromatase: Inhibition of human Aromatase
Description for Caco-2: Anti cancer activity against human Caco-2 cell assessed as cell growth inhibition incubated for 48 hrs by Brdu assay
Description for HT-29: Anti cancer activity against human HT-29 cell assessed as cell growth inhibition incubated for 48 hrs by Brdu assay
Description for HepG2: Anti cancer activity against human HepG2 cell assessed as cell growth inhibition incubated for 48 hrs by Brdu assay

Regarding `COc1cc(/C=C/c2ccc(OC(=O)CSc3nnc(-c4cccc(C(F)(F)F)c4)o3)cc2)cc(OC)c1`, in the data set with MDA-MB-231 [1], the IC50 came out at 0.072 µM. In addition, the GI50 with PANC-1 (48 h) was 0.094 µM; in the data set on PANC-1 (Homo sapiens, PANC-1, 48 h), 0.064 µM.
As to `Oc1ccc(/C=C/c2cc(O)cc(OCc3ccccc3)c2)cc1`, the IC50 came out at 2.7 µM against Aromatase; 11.8 µM in the data set with A549; 7.96 µM in data set [2]; 0.14 µM against CYP1A; 1.41 µM with HeLa [3].
Regarding `COc1ccc(/C(C#N)=C/c2ccc3ccccc3c2)cc1OC`, the CC50 in the data set with MV4-11 is 0.45 µM. The GI50 in the data set with SF-295, with UACC-62 and in the data set on MDA-MB-435 was 0.025 µM in each case.
The molecule `COc1ccc(/C=C\c2cc(OC)c(OC)c(OC)c2)cc1O` [COMBRETASTATIN A4] displayed a GI50 in [4] of under 0.01 µM.
Take `CC(=O)Oc1ccc(/C=C/c2ncc3cccc(OC(C)=O)c3n2)cc1OC(C)=O`: the IC50 with HeLa [5] stood at 10.2 µM.
For the molecule `COc1ccc(/C=C\c2cc(OC)cc(OC)c2)cc1` [8Z-3,4',5-TRIMETHOXYSTILBENE], the viability at 10 µM in the data set on BT-549 was 70%; with ZR-75-1, under 50%; in the data set with MDA-MB-231 [7], 10%; in the data set on MDA-MB-157, 25%; with MCF7, 50%. The “inhibition (INH)” value in the data set with B16-F10 [6] was determined as 75%. The IC50 with HT-29 came out at 0.115 µM; in the data set on Caco-2, 0.145 µM; in the data set with B16-F10 [8], 1 µM; in the data set with HepG2, 0.473 µM.
In the case of `COc1cc(/C(C#N)=C/c2ccc3ccccc3c2)cc(OC)c1OC`, the 50% growth inhibitory concentration (GI50) with SK-MEL-5, with SF-539, in the data set on COLO 205 and in the data set on MDA-MB-435 was at most 0.025 µM each time. Moreover, in the data set on MV4-11, the CC50 is 0.2 µM.
On to `Nc1ccc(/C=C/c2ccc(O)cc2)cc1`, for which the half-maximal inhibitory concentration (IC50) in the data set on BXPC-3 worked out at 22.5 µM; in the data set with ASPC1, 3.23 µM; with Capan-2 it was 3.03 µM.
In the case of `COc1ccc(/C=C(\C#N)c2cc(OC)c(OC)c(OC)c2)cc1O`, the GI50 in data set [4] is under 0.01 µM.
`Oc1ccc(/C=C/c2ccc(O)c(O)c2)cc1O`: the IC50 in [9] stood at 502 µM; in the data set on A2780 [10], 6 µM; with A2780 [11], 4 µM; in the data set on OVCAR-3 [12], 85 µM; with SK-OV-3 [13], 10 µM; in data set [14], 496 µM. In addition, the half-inhibitory concentration (IC50) in data set [15] worked out at 532 µM; in the data set on SK-OV-3 [16], 8 µM; in data set [17] it was 498 µM; in the data set with OVCAR-3 [18], 50 µM.

These data come from ChEMBL document CHEMBL5233248, “Resveratrol - A comprehensive review of recent advances in anticancer drug design and development” (Eur J Med Chem, 2020).
